Laboratory results reported in US6379676B2, “Enhancing immune response in animals” (priority 1999, dated 2002).

Tested on: E. coli
Procedure: The term “resistant to contamination by pathogenic bacteria” means that a challenge with 1000 colony forming units (CFU) per gram of feed results in the death of substantially all the bacteria within 24 to 72 hours. In particular, the term “resistance to contamination by Salmonella or E. coli” means that a challenge with 1000 CFUs of Salmonella or E. coli per gram of feed results in 1 CFU or less per 25 grams of feed after 24 hours incubation at 25° C.
One set of samples was treated with a coarse spray (270 microns) at 1.8 gal/hr. (6.81 liters/hr.) and another was treated with fine mist (43 microns) at 25.5 gal/hr. (96.5 liters/hr.). Each sample of 500 grams was challenged with 20 ml of a liquid inoculum of Escherishia coli (>10^6 CFU/ml) one week after treatment.

**Q.** How did the “time finished feed resists contamination by E. coli” value (2 lbs. (0.91 kg) dry wt. per metric ton, 2.0% CV, 1000 CFUs/gram of feed) turn out when `C=O` [formaldehyde] was run?
**A.** about 60 days

**Q.** What about the “resistance as measured by challenge with E. coli” value (4 lbs. (1.81 kg) dry wt. per metric ton of finished feed, 7% CV, 1000 CFU/gram of feed) of the same compound?
**A.** about 30 days
